This note sets out measurements from patent publication US20150150787A1 (Pearl Therapeutics, Inc., priority 2013, published 2015).

Data set [1] in a line: Aerodynamic particle size distribution by Next Generation Impactor, MF/GP/FF triple cosuspension MDIs (Example 1). The data set is classed as physicochemical. Particulars: for FPM values when MF strength was varied: FF 4.8 μg and GPBr 18 μg/actuation, MF 100-300 μg/actuation. On the procedure: The FF, GPBr, and MF materials were provided as a separate species of active agent particles, with each of the active agents provided as micronized, crystalline material. The co-suspension compositions were provided in pressurized metered dose inhalers (“MDI” or “MDIs”), with each formulation prepared to provide a delivered dose of 4.8 μg/actuation and 18 μg/actuation, respectively, of FF and GPBr. However, the amount of MF included in the three different compositions was varied, with compositions prepared to provide a delivered dose of MF selected from one of 100 μg/actuation, 200 μg/actuation, and 300 μg/actuation.
The suspending particles used in these co-suspensions were perforated microstructures prepared as described herein using a phospholipid material (DSPC). Drug crystals of GPBr (Boehringer Ingelheim, Petersberg, Va.) were micronized by air jet milling after receipt (median size, X50, ˜1.6 μm), but the FF (Inke, S.A., Barcelona Spain; X50˜1.4 μm) and MF (Hovione, Loures Portugal; X50˜1.6 μm) drug crystals were used as received. The Co-suspension formulations were prepared in HFA 134a propellant (Mexichem, S.A., Tlanepantla Mexico) and filled into 14 mL fluorinated ethylene polymer coated aluminum canisters (Presspart, Blackburn, UK), packaged with 50 μl valves, and delivered using an actuator with orifice size 0.3 mm (Bespak, King's Lynn, UK). Aerodynamic particle size distributions (aPSD) were obtained using the Next Generation Impactor (NGI) with the flow rate set to 30±1 LPM (n=3). Drug content was measured using ion-exchange HPLC with UV detection for FF and GP or reversed-phase HPLC with UV detection for MF.

Data set [2] can be described thus: Aerosol performance by Next Generation Impactor, BD/GP/FF cosuspension MDIs (Example 2). It is filed as physicochemical. The conditions noted are these: NGI 30 LPM, versus mono/dual cosuspensions or other strengths.
Experimental: The aerosol performance of each of the triple cosuspension compositions was evaluated and compared to the aerosol performance provided by the GFF, BFF, and BD Mono cosuspensions. Aerosol performance and aerodynamic particle size distributions were obtained using the Next Generation Impactor (NGI) with the flow rate set to 30±1 LPM (n=3).

Regarding `C[N+]1(C)CCC(OC(=O)C(O)(c2ccccc2)C2CCCC2)C1` (stereo not shown) [GP, (3-[(cyclopentylhydroxyphenylacetyl)oxy]-1,1-dimethyl-, bromide)], the “FPM values when MF strength was varied” value in data set [1] was “remained virtually unchanged”.

As to `COc1ccc(C[C@@H](C)NC[C@H](O)c2ccc(O)c(NC=O)c2)cc1` (racemic) [FF, (±)-2-hydroxy-5-[(1RS)-1-hydroxy-2-[[(1RS)-2-(4-methoxyphenyl)-1-methylethyl]-amino]ethyl] formanilide], in data set [2], the “Coformulation effect (aerosol performance) when formulated in the triple cosuspensions” value is listed as “no coformulation effect was observed”. Further, the “FPM values when MF strength was varied” value in data set [1] is “remained virtually unchanged”.

On to `C[C@@H]1C[C@H]2[C@@H]3CCC4=CC(=O)C=C[C@]4(C)[C@@]3(Cl)[C@@H](O)C[C@]2(C)[C@@]1(OC(=O)c1ccco1)C(=O)CCl` [MF, mometasone furoate], for which, in data set [1] (FPM = drug mass stages 3 through MOC, MF 100, 200, 300 μg/actuation, NGI 30 LPM, n=3), the “MF FPM dose proportionality, slope” value came to 0.48.
